Source: patent US20250195682A1, “IMPROVED CELL-TARGETING BINDING MOLECULE” (priority 2018, published 2025)

Legend:
[1] = pH dependent hydrolysis of the hydrazone bond (MALDI-TOF-MS); format: physicochemical; conditions: HCl solution at pH 3
HeLa cells (EGFR+) = assay: Cell viability (MTS) assay, HeLa cells; format: cell-based, human; conditions: co-administered with SO1861 + dianthin-EGF, 500 nM PAMAM (native, thiolated, PEGylated) or chloroquine, 667 nM dendron
Description: (§1) After treatment the cells were incubated for 72 hr at 37° C. before the cell viability was determined by a MTS-assay, performed according to the manufacturer's instruction (CellTiter 96@AQueous One Solution Cell Proliferation Assay, Promega). Briefly, the MTS solution was diluted 20× in DMEM without phenol red (PAN-Biotech GmbH) supplemented with 10% FBS (PAN-Biotech GmbH). The cells were washed once with 200 μL PBS per well, after which 100 μL diluted MTS solution was added per well. The plate was incubated for approximately 20-30 minutes at 37° C. Subsequently, the optical density at 492 nm was measured on a Thermo Scientific Multiskan FC plate reader (Thermo Scientific). For quantification the background signal of ‘medium only’ wells was subtracted from all other wells, before the ratio of untreated/treated cells was calculated, by dividing the background corrected signal of untreated wells over the background corrected signal of the treated wells.

[2] = test system: SK-BR-3, JIMT-1, MDA-MB-468, A431, CaSki, HeLa, A2058; assay: Control treatments, relative cell viability on various cancer cell lines; format: cell-based, human; conditions: toxins up to 100.000 pM
Description: as §1

Molecule: CC(=O)OC1C(C)OC(OC2C(C)OC(OC(=O)[C@]34CCC(C)(C)CC3C3=CCC5[C@@]6(C)CC[C@H](OC7OC(C(=O)O)C(O)C(OC8OCC(O)C(O)C8O)C7OC7OC(CO)C(O)C(O)C7O)[C@@](C)(/C=N/NC(=O)CCCCCN7C(=O)C=CC7=O)C6CC[C@@]5(C)[C@]3(C)C[C@H]4O)C(OC3OC(C)C(OC4OCC(O)C(OC5OC(CO)C(O)C(O)C5O)C4O)C(O)C3O)C2O)C(O)C1OC1OCC(O)C(O)C1O (stereo partly drawn) [SO1861-EMCH]
- hydrolysis of the hydrazone bond [1]: the hydrazone bond is responsive towards hydrolysis and gets cleaved

Molecule: CCN(CC)CCCC(C)Nc1ccnc2cc(Cl)ccc12 (stereo not drawn) [chloroquine]
- effect on SO1861-mediated endosomal escape of the targeted toxin and cell killing (HeLa cells (EGFR+)): inhibit the SO1861-mediated endosomal escape

Molecule: saporin
- influence on cell viability [2]: do not or hardly have any influence on cell viability
